Test results reported in article doi:10.1101/2024.01.24.577111v1 (biorxiv, 2024).

What was measured:
mouse TRPM8 (mTRPM8) = mouse TRPM8 (mTRPM8) (Mus musculus, UniProt Q8R4D5); experiment: whole-cell patch clamp, shift of voltage for half-maximal activation; type: cell-based; details: agonist; 30 µM rapamycin, calcium-free, pH 7.4, 33 °C
rat TRPM8 = rat TRPM8 (Rattus norvegicus, UniProt Q8R455); experiment: Fura-2 ratiometric calcium imaging, agonist dose-response; type: cell-based
Sequence of rat TRPM8 (Q8R455 whole entry): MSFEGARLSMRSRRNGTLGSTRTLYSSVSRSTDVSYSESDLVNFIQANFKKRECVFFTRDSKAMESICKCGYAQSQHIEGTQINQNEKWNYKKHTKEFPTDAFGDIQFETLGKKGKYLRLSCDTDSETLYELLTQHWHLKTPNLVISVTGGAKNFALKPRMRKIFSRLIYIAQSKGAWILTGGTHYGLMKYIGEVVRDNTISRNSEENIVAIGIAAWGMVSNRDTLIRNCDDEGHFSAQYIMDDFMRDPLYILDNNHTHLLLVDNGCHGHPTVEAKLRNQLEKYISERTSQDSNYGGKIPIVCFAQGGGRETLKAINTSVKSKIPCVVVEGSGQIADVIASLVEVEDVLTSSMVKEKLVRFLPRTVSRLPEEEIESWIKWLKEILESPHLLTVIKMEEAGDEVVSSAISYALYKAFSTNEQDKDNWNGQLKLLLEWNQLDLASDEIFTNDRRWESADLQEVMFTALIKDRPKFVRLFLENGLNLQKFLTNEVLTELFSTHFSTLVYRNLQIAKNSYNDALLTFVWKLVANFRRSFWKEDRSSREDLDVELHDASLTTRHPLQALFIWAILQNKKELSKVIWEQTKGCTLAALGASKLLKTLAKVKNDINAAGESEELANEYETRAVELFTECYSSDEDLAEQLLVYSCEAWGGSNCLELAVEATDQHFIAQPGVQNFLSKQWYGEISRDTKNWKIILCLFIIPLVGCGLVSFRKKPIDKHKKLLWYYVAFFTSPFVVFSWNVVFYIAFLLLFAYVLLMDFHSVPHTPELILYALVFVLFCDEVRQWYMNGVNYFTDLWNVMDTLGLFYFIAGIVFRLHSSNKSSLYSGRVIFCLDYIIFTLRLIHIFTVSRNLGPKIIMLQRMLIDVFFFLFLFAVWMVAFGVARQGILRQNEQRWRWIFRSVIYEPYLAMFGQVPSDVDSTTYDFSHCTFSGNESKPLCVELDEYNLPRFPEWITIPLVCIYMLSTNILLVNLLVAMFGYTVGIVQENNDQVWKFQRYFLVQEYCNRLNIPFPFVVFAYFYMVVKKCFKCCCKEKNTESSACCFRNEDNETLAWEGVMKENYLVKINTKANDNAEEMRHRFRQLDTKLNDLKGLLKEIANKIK

Sequence of mouse TRPM8 (mTRPM8) (Q8R4D5 whole entry): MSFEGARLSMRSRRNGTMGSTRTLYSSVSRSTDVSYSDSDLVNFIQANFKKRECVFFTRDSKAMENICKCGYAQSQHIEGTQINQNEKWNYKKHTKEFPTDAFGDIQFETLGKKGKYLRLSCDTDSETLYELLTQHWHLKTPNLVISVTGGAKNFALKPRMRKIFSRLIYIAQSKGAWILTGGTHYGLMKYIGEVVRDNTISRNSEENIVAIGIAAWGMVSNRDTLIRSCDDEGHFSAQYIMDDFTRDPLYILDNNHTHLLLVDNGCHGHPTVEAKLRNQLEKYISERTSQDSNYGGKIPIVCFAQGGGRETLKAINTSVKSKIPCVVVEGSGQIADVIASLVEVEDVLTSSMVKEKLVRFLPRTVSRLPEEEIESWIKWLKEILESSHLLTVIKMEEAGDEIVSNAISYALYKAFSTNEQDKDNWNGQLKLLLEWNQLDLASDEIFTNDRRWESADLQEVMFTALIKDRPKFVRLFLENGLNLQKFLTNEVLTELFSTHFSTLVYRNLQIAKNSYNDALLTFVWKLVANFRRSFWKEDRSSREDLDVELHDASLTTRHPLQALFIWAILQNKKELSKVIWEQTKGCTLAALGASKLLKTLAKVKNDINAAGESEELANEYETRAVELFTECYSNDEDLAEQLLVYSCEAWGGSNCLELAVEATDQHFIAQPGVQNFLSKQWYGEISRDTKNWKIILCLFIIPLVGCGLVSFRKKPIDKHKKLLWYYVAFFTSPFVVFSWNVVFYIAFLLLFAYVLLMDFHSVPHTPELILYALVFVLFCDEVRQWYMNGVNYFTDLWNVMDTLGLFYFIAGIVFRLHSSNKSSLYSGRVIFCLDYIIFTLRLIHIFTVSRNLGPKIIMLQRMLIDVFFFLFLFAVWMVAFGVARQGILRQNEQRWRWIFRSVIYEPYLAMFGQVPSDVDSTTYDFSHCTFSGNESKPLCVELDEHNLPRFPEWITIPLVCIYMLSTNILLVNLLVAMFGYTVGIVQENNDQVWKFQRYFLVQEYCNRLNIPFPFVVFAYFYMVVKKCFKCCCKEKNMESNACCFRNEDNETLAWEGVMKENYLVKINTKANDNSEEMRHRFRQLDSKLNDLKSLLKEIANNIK

ΔV1/2 (mouse TRPM8 (mTRPM8)): −102.1 ± 5.2 mV
EC50 (rat TRPM8): 6.5 ± 1.5 µM
SMILES: CO[C@H]1C[C@@H]2CC[C@@H](C)[C@@](O)(O2)C(=O)C(=O)N2CCCC[C@H]2C(=O)O[C@H]([C@H](C)C[C@@H]2CC[C@@H](O)[C@H](OC)C2)CC(=O)[C@H](C)/C=C(\C)[C@@H](O)[C@@H](OC)C(=O)[C@H](C)C[C@H](C)/C=C/C=C/C=C/1C [rapamycin]
